Columns and labels:
Format in all cases: in vivo
[1] = tested on: barnyard grass; test: Test Example 1: weedkilling efficacy, preemergent weed treatment in the submerged state; A: barnyard grass
Procedure, shortened: (§1)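 Pre-emergence application onto floodwater (4 cm, alluvial soil) on the day of sowing, dose expressed as g/ha from diluted emulsion formulation. Weeds sown with 2.5-leaf transplanted rice as crop; plants held at 25–30 °C in greenhouse and scored against assessment criteria after 3 weeks.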

[2] = tested on: bulrush; test: Test Example 1: weedkilling efficacy, preemergent weed treatment in the submerged state; B: bulrush
Procedure, shortened: as §1

[3] = tested on: oval-leafed pondweed; test: Test Example 1: weedkilling efficacy, preemergent weed treatment in the submerged state; C: oval-leafed pondweed
Procedure, shortened: as §1

[4] = tested on: transplanted rice; test: Test Example 1: preemergent weed treatment in the submerged state, effect on crop; a: transplanted rice
Procedure, shortened: as §1

[5] = tested on: barnyard grass; test: Test Example 2: weedkilling efficacy, growth period weed treatment in the submerged state; A: barnyard grass
Procedure, shortened: (§2)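 Weeds treated at the 1-2 leaf stage by application of diluted emulsion onto floodwater (4 cm depth, alluvial soil) at specified g/ha. Grown in greenhouse at 25 to 30° C; herbicidal effect rated three weeks after treatment.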

[6] = tested on: bulrush; test: Test Example 2: weedkilling efficacy, growth period weed treatment in the submerged state; B: bulrush
Procedure, shortened: as §2

[7] = tested on: oval-leafed pondweed; test: Test Example 2: weedkilling efficacy, growth period weed treatment in the submerged state; C: oval-leafed pondweed
Procedure, shortened: as §2

| SMILES | A: barnyard grass, weed kill grade ([1]; treatment dosage 320 g/ha) | B: bulrush, weed kill grade ([2]; treatment dosage 320 g/ha) | C: oval-leafed pondweed, weed kill grade ([3]; treatment dosage 320 g/ha) | a: transplanted rice, effect on crop grade ([4]; treatment dosage 320 g/ha) | A (barnyard grass) weedkilling efficacy grade ([5]; treatment dosage 320 g/ha) | B (bulrush) weedkilling efficacy grade ([6]; treatment dosage 320 g/ha) | C (oval-leafed pondweed) weedkilling efficacy grade ([7]; treatment dosage 320 g/ha) | A: barnyard grass, weed kill grade ([1]; treatment dosage 252 g/ha) | B: bulrush, weed kill grade ([2]; treatment dosage 252 g/ha) | C: oval-leafed pondweed, weed kill grade ([3]; treatment dosage 252 g/ha) | a: transplanted rice, effect on crop grade ([4]; treatment dosage 252 g/ha) | A (barnyard grass) weedkilling efficacy grade ([5]; treatment dosage 252 g/ha) | B (bulrush) weedkilling efficacy grade ([6]; treatment dosage 252 g/ha) | C (oval-leafed pondweed) weedkilling efficacy grade ([7]; treatment dosage 252 g/ha) |
| --- | --- | --- | --- | --- | --- | --- | --- | --- | --- | --- | --- | --- | --- | --- |
| CC(C)(C(=O)Nc1cnc(Cl)c(Cl)c1)N1COCN(c2ccccc2)C1=O [A-3-05] | 3 (weed kill ratio 40% or more, less than 70%) | 5 (weed kill ratio 90% or more, (practically complete withering)) | 5 (weed kill ratio 90% or more, (practically complete withering)) | 0 (weed kill ratio 5% or less (practically no effect)) | 4 (weed kill ratio 70% or more, less than 90%) | 5 (weed kill ratio 90% or more, (practically complete withering)) | 5 (weed kill ratio 90% or more, (practically complete withering)) | – | – | – | – | – | – | – |
| CC(C)(C(=O)Nc1cc(Cl)cnc1Cl)N1COCN(c2ccccc2)C1=O [A-3-06] | – | – | – | – | – | – | – | 5 (weed kill ratio 90% or more, (practically complete withering)) | 5 (weed kill ratio 90% or more, (practically complete withering)) | 4 (weed kill ratio 70% or more, less than 90%) | 1 (weed kill ratio 5% or more, less than 20%) | 3 (weed kill ratio 40% or more, less than 70%) | 4 (weed kill ratio 70% or more, less than 90%) | 2 (weed kill ratio 20% or more, less than 40%) |
| CC(C)(C(=O)Nc1cc(Br)cnc1Cl)N1COCN(c2ccccc2)C1=O [A-3-07] | – | – | – | – | – | – | – | 5 (weed kill ratio 90% or more, (practically complete withering)) | 5 (weed kill ratio 90% or more, (practically complete withering)) | 4 (weed kill ratio 70% or more, less than 90%) | 0 (weed kill ratio 5% or less (practically no effect)) | 4 (weed kill ratio 70% or more, less than 90%) | 5 (weed kill ratio 90% or more, (practically complete withering)) | 1 (weed kill ratio 5% or more, less than 20%) |
| CC(C)(C(=O)Nc1cc(Cl)cnc1Br)N1COCN(c2ccccc2)C1=O [A-3-08] | – | – | – | – | – | – | – | 5 (weed kill ratio 90% or more, (practically complete withering)) | 5 (weed kill ratio 90% or more, (practically complete withering)) | 4 (weed kill ratio 70% or more, less than 90%) | 0 (weed kill ratio 5% or less (practically no effect)) | 2 (weed kill ratio 20% or more, less than 40%) | 3 (weed kill ratio 40% or more, less than 70%) | 2 (weed kill ratio 20% or more, less than 40%) |
| CC(C)(C(=O)Nc1cncc(C(F)(F)F)c1)N1COCN(c2ccccc2)C1=O [A-3-10] | – | – | – | – | – | – | – | 5 (weed kill ratio 90% or more, (practically complete withering)) | 5 (weed kill ratio 90% or more, (practically complete withering)) | 5 (weed kill ratio 90% or more, (practically complete withering)) | 1 (weed kill ratio 5% or more, less than 20%) | 3 (weed kill ratio 40% or more, less than 70%) | 5 (weed kill ratio 90% or more, (practically complete withering)) | 4 (weed kill ratio 70% or more, less than 90%) |
| CC(C)(C(=O)Nc1ccnc(Cl)c1)N1COCN(c2ccccc2)C1=O [A-4-02] | – | – | – | – | – | – | – | 5 (weed kill ratio 90% or more, (practically complete withering)) | 5 (weed kill ratio 90% or more, (practically complete withering)) | 5 (weed kill ratio 90% or more, (practically complete withering)) | 1 (weed kill ratio 5% or more, less than 20%) | 2 (weed kill ratio 20% or more, less than 40%) | 5 (weed kill ratio 90% or more, (practically complete withering)) | 4 (weed kill ratio 70% or more, less than 90%) |
| CC(C)(C(=O)Nc1ccnc(Br)c1)N1COCN(c2ccccc2)C1=O [A-4-03] | – | – | – | – | – | – | – | 5 (weed kill ratio 90% or more, (practically complete withering)) | 5 (weed kill ratio 90% or more, (practically complete withering)) | 5 (weed kill ratio 90% or more, (practically complete withering)) | 1 (weed kill ratio 5% or more, less than 20%) | 2 (weed kill ratio 20% or more, less than 40%) | 5 (weed kill ratio 90% or more, (practically complete withering)) | 4 (weed kill ratio 70% or more, less than 90%) |
| CC(C)(C(=O)Nc1cc(F)nc(F)c1)N1COCN(c2ccccc2)C1=O [A-4-04] | 5 (weed kill ratio 90% or more, (practically complete withering)) | 5 (weed kill ratio 90% or more, (practically complete withering)) | 5 (weed kill ratio 90% or more, (practically complete withering)) | 0 (weed kill ratio 5% or less (practically no effect)) | 3 (weed kill ratio 40% or more, less than 70%) | 5 (weed kill ratio 90% or more, (practically complete withering)) | 4 (weed kill ratio 70% or more, less than 90%) | – | – | – | – | – | – | – |
| CC(C)(C(=O)Nc1ccnc(C(F)(F)F)c1)N1COCN(c2ccccc2)C1=O [A-4-06] | – | – | – | – | – | – | – | 5 (weed kill ratio 90% or more, (practically complete withering)) | 5 (weed kill ratio 90% or more, (practically complete withering)) | 5 (weed kill ratio 90% or more, (practically complete withering)) | 0 (weed kill ratio 5% or less (practically no effect)) | 4 (weed kill ratio 70% or more, less than 90%) | 5 (weed kill ratio 90% or more, (practically complete withering)) | 4 (weed kill ratio 70% or more, less than 90%) |
| CC(C)(C(=O)Nc1cc(-c2ccsc2)ccn1)N1COCN(c2ccccc2)C1=O [A-5-01] | 4 (weed kill ratio 70% or more, less than 90%) | 5 (weed kill ratio 90% or more, (practically complete withering)) | 5 (weed kill ratio 90% or more, (practically complete withering)) | 0 (weed kill ratio 5% or less (practically no effect)) | 4 (weed kill ratio 70% or more, less than 90%) | 4 (weed kill ratio 70% or more, less than 90%) | 4 (weed kill ratio 70% or more, less than 90%) | – | – | – | – | – | – | – |
| CC(C)(C(=O)Nc1cc(Cl)cc(Cl)n1)N1COCN(c2c(F)cccc2F)C1=O [A-6-01] | – | – | – | – | – | – | – | 5 (weed kill ratio 90% or more, (practically complete withering)) | 5 (weed kill ratio 90% or more, (practically complete withering)) | 5 (weed kill ratio 90% or more, (practically complete withering)) | 3 (weed kill ratio 40% or more, less than 70%) | 5 (weed kill ratio 90% or more, (practically complete withering)) | 5 (weed kill ratio 90% or more, (practically complete withering)) | 5 (weed kill ratio 90% or more, (practically complete withering)) |
| CC(C)(C(=O)Nc1cc(Cl)cc(Br)n1)N1COCN(c2c(F)cccc2F)C1=O [A-6-02] | – | – | – | – | – | – | – | 5 (weed kill ratio 90% or more, (practically complete withering)) | 5 (weed kill ratio 90% or more, (practically complete withering)) | 5 (weed kill ratio 90% or more, (practically complete withering)) | 0 (weed kill ratio 5% or less (practically no effect)) | 5 (weed kill ratio 90% or more, (practically complete withering)) | 5 (weed kill ratio 90% or more, (practically complete withering)) | 5 (weed kill ratio 90% or more, (practically complete withering)) |
| CC(C)(C(=O)Nc1cc(C(F)(F)F)ccn1)N1COCN(c2ccc(Cl)c(Cl)c2)C1=O [A-6-03] | 3 (weed kill ratio 40% or more, less than 70%) | 5 (weed kill ratio 90% or more, (practically complete withering)) | 0 (weed kill ratio 5% or less (practically no effect)) | 0 (weed kill ratio 5% or less (practically no effect)) | 0 (weed kill ratio 5% or less (practically no effect)) | 2 (weed kill ratio 20% or more, less than 40%) | 0 (weed kill ratio 5% or less (practically no effect)) | – | – | – | – | – | – | – |
| Cc1ccc(N2COCN(C(C)(C)C(=O)Nc3cc(C(F)(F)F)ccn3)C2=O)cc1Cl [A-6-04] | 4 (weed kill ratio 70% or more, less than 90%) | 4 (weed kill ratio 70% or more, less than 90%) | 2 (weed kill ratio 20% or more, less than 40%) | 0 (weed kill ratio 5% or less (practically no effect)) | 1 (weed kill ratio 5% or more, less than 20%) | 2 (weed kill ratio 20% or more, less than 40%) | 0 (weed kill ratio 5% or less (practically no effect)) | – | – | – | – | – | – | – |
